In publication PMC6284057, “Combined Antibacterial Effects of Goat Cathelicidins With Different Mechanisms of Action” (Frontiers in Microbiology, 2018):
Where two headings read alike, the source gives them in different places. No end group written: not given here.

What was measured:
[1] = test system: P. aeruginosa (XDR CI 1049); experiment: microbe, parasite or virus in culture; assay type: cell-based, Pseudomonas aeruginosa; conditions: Table S2, XDR clinical isolate; NaCl content of medium not stated; read-out: Minimum inhibitory concentration
Protocol: (§1) Antimicrobial assay was performed as described previously ([Panteleev et al., 2017b]). Briefly, mid-log phase bacterial test cultures were diluted with the 2× Mueller-Hinton broth (MH, Sigma) supplemented with 1.8% NaCl or without it so that to reach a final cell concentration of 10^6 CFU/ml. 50 μl aliquots of the obtained bacterial suspension were added to 50 μl of the peptide solutions serially diluted with 0.1% water solution of bovine serum albumin (BSA) in 96-well flat-bottom polystyrene microplates (Eppendorf #0030730011). After incubation at 37°C and 900 rpm for 24 h the minimum inhibitory concentrations (MIC) were determined as the lowest peptide concentrations that prevented growth of a test microorganism observed as visible turbidity. The results were expressed as the median values determined on the basis of at least three independent experiments performed in triplicate.

K. pneumoniae (CI 287) = assay type: cell-based, Klebsiella pneumoniae
Protocol: as §1
(§2) The peptides were twofold serially diluted with 0.1% BSA in 96-well microplates (Eppendorf #0030730011). Then, the peptide solutions were mixed in the new test plate crosswise in such a way that the resulting checkerboard contained each combination of the cathelicidins in eight doubly increasing concentrations, with wells containing the highest concentration of each peptide at opposite corners ([Berditsch et al., 2015]). Then, the antimicrobial assay was performed as described in the previous section. […] The results were expressed as the median values determined on the basis of three independent experiments performed in duplicate. Estimation of synergistic effects of different cathelicidins was performed by calculating the fractional inhibitory concentration index (FICI) according to the equation: FICI = [À]/MICÀ + [B]/MICB, where MICÀ and MICB are the MICs of the individual substances, while [A] and [B] are the MICs of A and B when used together. A synergistic effect was defined at a FICI ≤ 0.5.

[2] = test system: P. mirabilis (XDR CI 3423); experiment: microbe, parasite or virus in culture; assay type: cell-based, Proteus mirabilis; conditions: Table S2, XDR clinical isolate; NaCl content of medium not stated; read-out: Minimum inhibitory concentration
Protocol: as §1

HEK293T cells = experiment: Cytotoxicity (MTT assay); assay type: cell-based, human; conditions: 24 h incubation, 3 independent experiments, read-out: IC50 against HEK293T cells
Protocol: (§3) Hemolytic activity of the peptides was tested against the fresh suspension of human red blood cells (hRBC) using the hemoglobin release assay as described previously ([Panteleev et al., 2016]). Three experiments were performed with the hRBC from blood samples obtained from independent donors. The obtained data were represented as average means with standard deviations. The cytotoxicity of the peptides against HEK293T (transformed human embryonic kidney cells) and HEF (human embryonic fibroblasts) cell lines was studied using the colorimetric 3-(4,5-dimethylthiazol-2-yl)-2,5-diphenyltetrazolium bromide (MTT) dye reduction assay according to ([Panteleev and Ovchinnikova, 2017]). Three independent experiments were performed for each peptide. Half maximal inhibitory concentration (IC50) values were estimated as described previously ([Kuzmin et al., 2018]).

E. coli XDR CI 1057 = conditions: for MIC value at transfer “1”: MH broth with 0.9% NaCl, 37°C, legend covers both strains, values match XDR CI 1057
Protocol: Resistance induction experiments were performed using the previously described method ([Chernysh et al., 2015]) with some modifications. Briefly, on day 1, the overnight culture of wild-type bacteria was diluted with the 2× MH broth containing 1.8% NaCl so that to reach a final cell concentration of 10^6 CFU/ml. 50 μl aliquots of the obtained bacterial suspension were added to 50 μl of the peptide solutions serially diluted with 0.1% water solution of BSA in 96-well microplates (Eppendorf #0030730011). After incubation at 37°C and 900 rpm for 22 ± 2 h, MICs were determined as described above. For each subsequent daily transfer, 5 μl of the inoculum taken from the first well with a sub-inhibitory drug concentration were diluted with 1 ml of the fresh 2× MH broth supplemented with 1.8% NaCl. […] Control serial passages in the absence of the agent were also performed.

[3] = test system: A. baumannii (XDR CI 2675); assay type: cell-based, Acinetobacter baumannii; conditions: for Fractional inhibitory concentration (FICA, FICB): [X]/MICX; for Fractional inhibitory concentration (FICA, FICB) / MIC of the peptide when used together ([A], [B]): 0.9% NaCl; for MIC of the peptide when used together ([A], [B]): in the mix ChMAP-28 + mini-ChBac7.5Nα, other peptide at sub-inhibitory concentration; for MIC of the individual peptide (MICA, MICB): peptide used individually, medium with physiological NaCl (0.9%), median of 3 experiments in duplicate
Protocol: as §1, §2

[4] = test system: K. pneumoniae (XDR CI 1056); experiment: microbe, parasite or virus in culture; assay type: cell-based, Klebsiella pneumoniae; conditions: Table S2, XDR clinical isolate; NaCl content of medium not stated; read-out: Minimum inhibitory concentration
Protocol: as §1

E. cloacae (XDR CI 4172) = experiment: microbe, parasite or virus in culture; assay type: cell-based, Enterobacter cloacae; conditions: read-out: Minimum inhibitory concentration
In short: (§4)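 Broth microdilution; final inoculum 10^6 CFU/ml of mid-log cells in 2× MH ± 1.8% NaCl; peptide diluted in 0.1% BSA; 37°C, 900 rpm, 24 h. MIC by visible turbidity; median of ≥3 independent experiments run in triplicate.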

[5] = test system: human red blood cells (hRBC); experiment: Hemolysis (hemoglobin release assay); assay type: cell-based; conditions: 1.5 h incubation, hRBC of 3 independent donors
Protocol: as §3

E. coli (CI 214) = assay type: cell-based, Escherichia coli; conditions: CI 214, 24 h
In short: as §4

[6] = test system: mammalian cell lines (HEK293T, HEF); experiment: Cytotoxicity (MTT assay); assay type: cell-based, human; conditions: HEK293T and HEF, 24 h incubation
Protocol: as §3

E. faecalis ATCC 29212 = assay type: cell-based, Enterococcus faecalis; conditions: ATCC 29212, 24 h
Protocol: Briefly, mid-log phase bacterial test cultures were diluted with the 2× Mueller-Hinton broth (MH, Sigma) supplemented with 1.8% NaCl or without it so that to reach a final cell concentration of 10^6 CFU/ml. 50 μl aliquots of the obtained bacterial suspension were added to 50 μl of the peptide solutions serially diluted with 0.1% water solution of bovine serum albumin (BSA) in 96-well flat-bottom polystyrene microplates (Eppendorf #0030730011). […] The results were expressed as the median values determined on the basis of at least three independent experiments performed in triplicate.

[7] = 0.9% NaCl, Mueller-Hinton broth, 10^6 CFU/ml, 0.1% BSA, 37°C, 24 h, median of at least 3 experiments
[8] = Without NaCl, Mueller-Hinton broth, 10^6 CFU/ml, 0.1% BSA, 37°C, 24 h, median of at least 3 experiments

Sequence: GRFKRFRKKLKRLWHKVGPFVGPILHY [ChMAP-28]
- MIC [1]: 0.5 µM
- MIC of the individual peptide (MICA, MICB) (K. pneumoniae (CI 287); CI 287, 24 h): 0.5 µM
- Fractional inhibitory concentration (FICA, FICB) (K. pneumoniae (CI 287); [X]/MICX, 0.9% NaCl): 0.125
- MIC [2]: 0.5 µM
- IC50 (HEK293T cells): ~3.5 µM
- MIC value at transfer “1” (E. coli XDR CI 1057): 0.125 µM
- Fractional inhibitory concentration (FICA, FICB) [3]: 0.125
- MIC of the peptide when used together ([A], [B]) [3]: 0.03 µM
- MIC of the individual peptide (MICA, MICB) [3]: 0.25 µM
- MIC [4]: 0.125 µM
- MIC (E. cloacae (XDR CI 4172); [7]): 0.25 µM
- MIC (E. cloacae (XDR CI 4172); Table S2, XDR clinical isolate, NaCl content of medium not stated): 0.25 µM
- MIC (E. cloacae (XDR CI 4172); [8]): 0.125 µM
- half maximal hemolysis concentration (HC50) ([5]; hemoglobin release): ~100 µM

Sequence: RRLRPRRPRLPRPRPRPRPRPR [mini-ChBac7.5Nα]
- MIC (E. coli (CI 214)): 4 µM
- Fractional inhibitory concentration (FICA, FICB) (K. pneumoniae (CI 287); CI 287, 24 h): 0.125
- MIC of the individual peptide (MICA, MICB) (K. pneumoniae (CI 287); CI 287, 24 h): 16 µM
- concentrations at which cytotoxic activity was shown [6]: > 25 µM
- MIC value at transfer “1” (E. coli XDR CI 1057): 8 µM
- MIC value after selection (E. coli XDR CI 1057; after eight passages, highest concentration tested 256 μM, MH broth, 0.9% NaCl): > 256 µM
- Fractional inhibitory concentration (FICA, FICB) [3]: 0.008
- MIC of the peptide when used together ([A], [B]) [3]: 0.5 µM
- MIC of the individual peptide (MICA, MICB) [3]: >32 µM
- Minimum inhibitory concentration (E. faecalis ATCC 29212): >32 µM
- MIC (E. cloacae (XDR CI 4172); [7]): 4 µM
- MIC (E. cloacae (XDR CI 4172); [8]): 1 µM
- red blood cells lysed ([5]; at the concentration of 100 μM): 2%
